Tested on: sunburned skin
Assay: topical treatment of sunburned skin
Assay type: in vivo, human being
Settings: compared with other anti-inflammatory drugs, such as Motrin® and Tolectin®
From the text: The present invention provides a method and composition for treating sunburned skin of a human being. The composition includes a mixture of indomethacin and a moisturizing lotion. […] It is believed that the skin, with the presence of the topical formulation, acts as a reservoir, absorbing large amounts of the indomethacin and slowly releasing the indomethacin into the skin and to other tissues. The skin may actually act as a depot or reservoir for the indomethacin. It is believed that the indomethacin is stabilized and solubilized by the moisturizing lotion wherein the moisturizing lotion enhances the absorption of the indomethacin through the skin and accordingly permits the drug to be employed topically for inflammation of the sunburned skin. […] This mixture level allows the Cetaphil® to act as a proper stabilizer and solubilizer for the indomethacin. A stronger or weaker indomethacin mixture may be created depending on the treatment. However, experimentation has shown that the above-noted mixture remains an effective mixture for the treatment of sunburned skin. In use, the disclosed amounts of indomethacin and Cetaphil® are mixed to create the appropriate composition. […] The moisturizing lotion provides moisture and a cooling sensation to the sunburned skin, and the indomethacin reduces the inflammation to the skin caused by the sunburn. […]

`COc1ccc2c(c1)c(CC(=O)O)c(C)n2C(=O)c1ccc(Cl)cc1` [indomethacin, 1-(p-chlorobenzoyl)-5-methoxy-2-methylindole-3-acetic acid] was tested, and the relieving sunburned skin was “far better results”.

— patent US7705032B2, “Method and composition for treating burned skin” (Lil Brat Pharmaceuticals of Marlette, MI, priority 2003, dated 2010)
